# Measurements from patent US10813931B2, “Methods and compositions relating to the treatment of cancer” (THE BRIGHAM AND WOMEN'S HOSPITAL, INC., priority 2013, dated 2020).
# Tests used:
# AKT and ezrin signaling = assay: Western blot of AKT, ezrin and ERM signaling in 468 cells treated with DTX +/- erlotinib; type: cell-based, human; settings: 10 nM DTX +/- erlotinib, 24 h
# Experimental: MDA-MB-231 (ATCC) were cultured in DMEM containing 10% Fetal Bovine Serum (FBS), MDA-MB-468 MDA-MB-435 and 4T-1 mammary carcinoma cells (ATCC) were cultured in RPMI containing 10% FBS (Invitrogen, Carlsbad Calif.) at 37 C and 5% CO2. During treatments with chemotherapeutics, cells were grown to semi-confluence and treated with indicated concentrations of chemotherapy in serum-containing medium for indicated time points. When small molecule inhibitors were included in treatments, they were added simultaneously with chemotherapy. For siRNA gene knockdown, cells were plated at a concentration of 5×10^4 cells/ml. Pre-validated Silencer Select siRNA targeting pan-CD44 (5′[…]tt3′) (SEQ ID NO: 38) or Ezrin (5′[…]tt3′) (SEQ ID NO: 39) were purchased from Ambion (Invitrogen, Grand Island, N.Y.). siRNA plasmids were transfected using lipofectamine 2000 (Invitrogen, Carlsbad Calif.) following manufacturer protocol and cultured for 72 hours prior to treatment. Scrambled siRNA was used as a control.
# Laemli sample buffer was prepared as a 5× solution containing β-mercaptoethanol as a reducing agent. […] Optical densities of western blots were measured using ImageJ™ open source software (National Institutes of Health) and validated using Adobe CS5™.
# 231 parent and DTC = assay: Cell viability (MTS) and drug sensitivity index, 231 parent vs DTC vs 231Phenocopy; type: cell-based, human; settings: for cell viability of DTC, SFK and BCR-Abl inhibition separately and in combination: 231 DTC, PP2 and imatinib in combination
# Experimental: (§1) Following viability analyses conducted as described in supplemental data, drug sensitivity index (SI) was determined as follows: Cell viability was determined as % of control for treatment conditions of 10 nM, 100 nM 1000 nM and 10 μM to generate an average cell viability across these 4 drug concentrations. SI was calculated as a ratio of parent:DTC or parent:parent^phenocopy. SI=1 correlates to parental sensitivity, SI<1 correlates to resistance compared to parent cell line and SI>1 correlates to enhanced sensitivity to the indicated drug compared to the parent cell line at the same concentration average.
# as §1, with “Cells were exposed to indicated treatments ([…]) for 48 hours in serum containing medium. Following” for “Following”, “incubation, cells were washed 1 time with PBS and recovered” for “viability analyses conducted as described”, “serum and phenol red-free RPMI or DMEM and subsequently treated with MTS following manufacturer protocol (Promega, Madison, Wis.). Drug” for “supplemental data, drug”
# [1] = test system: DTC subsets derived from multiple cancer types; assay: Drug sensitivity index of dasatinib in DTC isolated from multiple cell lines; type: cell-based; settings: DTC from multiple cell lines vs parent, 48 h
# Experimental: as §1
# Parent cells DTC or Parent^Phenocopy were generated as described and plated at a concentration of 1.5×10^5 in a clear bottom 96-well plate. Cells were exposed to indicated treatments ([…]) for 48 hours in serum containing medium. Following incubation, cells were washed 1 time with PBS and recovered in serum and phenol red-free RPMI or DMEM and subsequently treated with MTS following manufacturer protocol (Promega, Madison, Wis.). Drug sensitivity index (SI) was determined as follows: Cell viability was determined as % of control for treatment conditions of 10 nM, 100 nM 1000 nM and 10 μM to generate an average cell viability across these 4 drug concentrations. SI was calculated as a ratio of parent:DTC or parent:parent^phenocopy. […]
# AKT signaling = assay: Western blot of phosphorylated and total Akt in 231 DTC; type: cell-based, human; settings: increasing doses, 4 h
# Experimental: Laemli sample buffer was prepared as a 5× solution containing β-mercaptoethanol as a reducing agent. Immunoprecipitaion was performed using both classic and direct IP kits purchased from Pierce following manufacturer protocols (Thermo Fisher inc. Rockford, Ill.). Briefly, cell lysates were prepared using IP/Lysis Buffer (Thermo Fisher inc. Rockford, Ill.) in the presence of 2×HALT protease/phosphatase inhibitor cocktail (Thermo Fisher inc. Rockford, Ill.). For classic Immunoprecipitation, lysates were combined with indicated antibodies for 48 hours at 4 C and combined with protein A/G agarose beads for 4 hours prior to elution with 2× Laemli Buffer at 100 C. Direct immunoprecipitation was performed following manufacturer protocol. Briefly, antibodies were covalently attached to agarose beads, lysate was combined with antibody-agarose bead conjugates for 24 hours prior to washes and elution with provided Elution Buffer. Protein samples were resolved by SDS-PAGE and transferred to PVDF membranes prior to incubation at 4 C with indicated primary antibodies. […] Optical densities of western blots were measured using ImageJ™ open source software (National Institutes of Health) and validated using Adobe CS5™.
# [2] = test system: explant from stage IV, metastatic breast cancer patient; assay: Refractory stage IV metastatic breast cancer explant, caspase activation; parameters: species or system human; settings: combination of dasatinib with DTX, 48 h
# Experimental: Fresh tumor tissues were collected from breast cancer patients immediately after surgical resection at HCG cancer hospital, Bangalore, India. The tumor samples were transported to the laboratory at 4° C., in appropriate transport buffer within 60 minutes post-resection, for ex-vivo studies and molecular and pathological evaluation. Tissues were cut into thin sections and cultured in 96 well plate using optimized conditions (Radhakrishnan et al., 2013). Tumors were treated with a taxane-containing regimen (Docetaxel+Doxorubicin+Cyclophosphamide) or other drugs as indicated. DMSO was used as a vehicle control. After 48 hrs of treatment, tumor cell viability was measured and release of soluble cleaved caspase-3 and caspase-8 were determined.
# Human Tumor tissues were fixed in Phos stop (Roche) containing 4% buffered formalin and embedded in paraffin. Prior to immunohistochemical staining of target proteins 4-μm-thick tissue sections mounted in poly L lysine coated glass slides were deparaffinized and rehydrated. Heat induced antigen retrieval was achieved using citrate buffer (pH7.8). […] Immunoreactivity was scored by intensity of staining (0, no staining, 1 weak; 2 moderate; 3 strong) and percentage of positive cells. By multiplying both values, a final score was calculated. […]
# [3] = test system: 4T-1 mouse mammary carcinoma; assay: 4T-1 tumor growth in Balb/C mice; type: in vivo
# Experimental: 4-6 week old Balb/C mice (Charles River, Cambridge Mass.) were inoculated with 10^6 4 T-1 mouse mammary carcinoma cells in the left flank (Charles River, Cambridge Mass.). Mice identified with tumors were treated with docetaxel (DTX) or vehicle twice at 72 hour intervals at 10 mg/kg i.v. or 15 mg/kg i.p. and subsequently treated with dasatinib i.p. or nanoparticles i.v. 72 hours following the final DTX dose. Tumors were harvested at indicated time points and evaluated for protein phosphorylation and expression. Experimental detail provided in supplemental data.
# 1 million 4T-1 mouse mammary carcinoma cells suspended in 100 µL PBS were injected per left flank of 5-6 week old Balb/C (Charles River, Wilmington Mass.). DTX was dissolved in pure Ethanol at a concentration of 50 mg/ml mixed 1:1 with Polysorbate 80 (Tween 80) and brought to a final working concentration with 5% glucose in PBS. Once Tumors became palpable (˜100 mm^3), DTX or vehicle treatments were administered at 100 μL volumes. Dasatinib was dissolved in DMSO to working concentration and delivered as 50 μL injections on indicated days, 50 µL DMSO used as a control in these studies. Tumor volumes were measured by a third party unaware of treatment conditions using digital calipers (Starlett, Athol, Mass.), volumes were assessed by the following formula: (Width×Width×length)/2 and expressed as relative volume increase from day 1. Tumor homogenate was prepared by homogenization of equal weight tissue sections incubated in 3×RIPA buffer containing 2× protease/phosphatase inhibitor cocktail (Thermo Fisher, Waltham, Mass.).
# 231 DTC and 468DTC = assay: Cell viability of DTC subsets with dasatinib, PI103, combination or DPNP; type: cell-based, human; settings: combination of PI103 and dasatinib (1:1), 48 h
# Experimental: Parent cells DTC or Parent^Phenocopy were generated as described and plated at a concentration of 1.5×10^5 in a clear bottom 96-well plate. Cells were exposed to indicated treatments ([…]) for 48 hours in serum containing medium. Following incubation, cells were washed 1 time with PBS and recovered in serum and phenol red-free RPMI or DMEM and subsequently treated with MTS following manufacturer protocol (Promega, Madison, Wis.). Drug sensitivity index (SI) was determined as follows: Cell viability was determined as % of control for treatment conditions of 10 nM, 100 nM 1000 nM and 10 μM to generate an average cell viability across these 4 drug concentrations. SI was calculated as a ratio of parent:DTC or parent:parent^phenocopy. SI=1 correlates to parental sensitivity, SI<1 correlates to resistance compared to parent cell line and SI>1 correlates to enhanced sensitivity to the indicated drug compared to the parent cell line at the same concentration average.
# TNBC = settings: 2011, cited from earlier work
# [4] = test system: 468 parent cells and a subset of DTC; assay: Survival curves of 468 parent cells and DTC exposed to chemotherapy; type: cell-based, human; settings: 48 h exposure
# Experimental: MDA-MB-231, MDA-MB-468 were purchased from ATCC. For acute treatments, cells were plated at a density of 0.5-1×10^5 cells/ml and allowed to adhere for 24-48 hr. when cells reached ˜70% confluency they were treated with antitubulins at indicated concentrations for 4-24 hours and utilized for subsequent assays. To generate chemotherapy tolerant subset, cells were treated with indicated concentrations of chemotherapy (48). Following washes with PBS, adherent cells were trypsinized and re-plated at a density of 1.5-2×10^5 cells/ml and cultured in serum-containing medium. After 24 hours incubation, floating cells were removed and remaining cells were washed with 1×PBS and considered a subpopulation of chemotherapy-tolerant cells. A separate plate of control cells were maintained concurrently in serum containing medium and provided fresh media at every interval where DTC received fresh media. […]
# Parent cells DTC or Parent^Phenocopy were generated as described and plated at a concentration of 1.5×10^5 in a clear bottom 96-well plate. […] Drug sensitivity index (SI) was determined as follows: Cell viability was determined as % of control for treatment conditions of 10 nM, 100 nM 1000 nM and 10 μM to generate an average cell viability across these 4 drug concentrations. SI was calculated as a ratio of parent:DTC or parent:parent^phenocopy. […]
# MDA-MB-231 (231) = assay: CD44 surface expression by FACS in 231 cells; type: cell-based, human; settings: 231 cells surviving 500 nM doxorubicin
# Experimental: MDA-MB-231, MDA-MB-468 were purchased from ATCC. For acute treatments, cells were plated at a density of 0.5-1×10^5 cells/ml and allowed to adhere for 24-48 hr. when cells reached ˜70% confluency they were treated with antitubulins at indicated concentrations for 4-24 hours and utilized for subsequent assays. To generate chemotherapy tolerant subset, cells were treated with indicated concentrations of chemotherapy (48). Following washes with PBS, adherent cells were trypsinized and re-plated at a density of 1.5-2×10^5 cells/ml and cultured in serum-containing medium. […]
# Cells were cultured as indicated and fixed with 4% paraformaldehyde in PBS for 30 min at RT and blocked in 10% goat serum (v/v). Following PBS washes, cells were incubated with indicated antibodies for 60 minutes at room temperature or overnight at 4 C and analyzed by FACS (Accuri cyomteters Inc. Ann Arbor, Mich.). Cell cycle analyzed in propidium iodide solution following incubation in 70% Ethanol overnight at 4 C and following manufacturer protocol (Genscript USA Inc. Piscataway, N.J.). AnnexinV/PI was analyzed FACS following manufacturer protocol (BD, Ann Arbor Mich.). All FACS results were analyzed by FlowJo™ software following a rigorous doublet discrimination based on FSC:A vs. width as well as FSC:A vs. height (Tree Star Inc., Ashland Oreg.). […]
smiles,measurement,setting,value
C#Cc1cccc(Nc2ncnc3cc(OCCOC)c(OCCOC)cc23)c1 [erlotinib],ERM-complex signaling,AKT and ezrin signaling,remained intact
same,induction of AKT and ezrin signaling in response to chemotherapy,AKT and ezrin signaling,prevented induction of AKT and ezrin signaling
Cc1ccc(NC(=O)c2ccc(CN3CCN(C)CC3)cc2)cc1Nc1nccc(-c2cccnc2)n1 [imatinib],"cell viability of DTC, SFK and BCR-Abl inhibition separately and in combination",231 parent and DTC,dual inhibition does not further augment the sensitivity of the DTC population
CC(C)(C)n1nc(-c2ccc(Cl)cc2)c2c(N)ncnc21 [PP2],"cell viability of DTC, SFK and BCR-Abl inhibition separately and in combination",231 parent and DTC,dual inhibition does not further augment the sensitivity of the DTC population
Cc1nc(Nc2ncc(C(=O)Nc3c(C)cccc3Cl)s2)cc(N2CCN(CCO)CC2)n1 [dasatinib],sensitivity (SI) of 231Phenocopy,231 parent and DTC; 231Phenocopy vs 231 parent,regained parental sensitivity
same,Sensitivity index (SI),"231 parent and DTC; DTC vs parental cell line, 48 h, average viability across 10 nM, 100 nM, 1000 nM and 10 μM",> 1
same,dasatinib sensitivity-index in additional DTC subsets,[1],consistent in additional DTC subsets derived from multiple cancer types
same,"AKT signaling (phosphorylated Akt, western blot)",AKT signaling,"reduced, to a minor degree, AKT signaling"
same,"apoptosis, cleaved caspase 3 (IHC)",[2],could re-sensitize the refractory cancer tissue to chemotherapy
same,caspase 8 levels,[2],no change
same,tumor growth rate (specific growth rate),"[3]; 'Early Dasatinib', given 72 hours following DTX",significantly augmented the reversal of tumor growth rate
same,tumor growth rate (specific growth rate),"[3]; 'Late Dasatinib', 216 hours following DTX",ineffective
same,relative tumor volume,[3]; early treatment group after DTX,tumor regression could be achieved
same,relative tumor volume,[3]; late treatment after DTX vs matched vehicle control,no difference over a matched vehicle control
same,"cell death in the DTC subset, combination",231 DTC and 468DTC,synergistic induction of cell death
same,clinical efficacy as single-agent in TNBC,TNBC; Finn et al.,failed as a single-agent
same,toxicity in clinical trials,TNBC; Herold et al.,significant toxic burden
COc1cccc2c1C(=O)c1c(O)c3c(c(O)c1C2=O)C[C@@](O)(C(=O)CO)C[C@@H]3O[C@H]1C[C@H](N)[C@H](O)[C@H](C)O1 [doxorubicin],susceptibility of DTC to chemotherapy vs parent cell,[4],acquired resistance
same,CD44 expression of doxorubicin tolerant cells (Dox-TC),MDA-MB-231 (231),robust expression of CD44
CO[C@H]1C(=O)[C@]2(C)[C@@H](OC)C[C@H]3OC[C@@]3(OC(C)=O)[C@H]2[C@H](OC(=O)c2ccccc2)[C@]2(O)C[C@H](OC(=O)[C@H](O)[C@@H](NC(=O)OC(C)(C)C)c3ccccc3)C(C)=C1C2(C)C [cabazitaxel],susceptibility of DTC to chemotherapy vs parent cell,[4],insensitive
Oc1cccc(-c2nc(N3CCOCC3)c3oc4ncccc4c3n2)c1 [PI103],"cell death in the DTC subset, combination",231 DTC and 468DTC,synergistic induction of cell death
